According to ChEMBL document CHEMBL5291721, “A preclinical secondary pharmacology resource illuminates target-adverse drug reaction associations of marketed drugs” (Nat Commun, 2023):

Tests used:
[1] = target: T1, Prostaglandin G/H synthase 1 (Homo sapiens, UniProt P23219); format: functional
[2] = target: Sodium-dependent noradrenaline transporter (Homo sapiens, UniProt P23975)
Prothrombin = Prothrombin (Homo sapiens, UniProt P00734); format: functional
[3] = target: T2, Muscarinic acetylcholine receptor M2 (Homo sapiens, UniProt P08172)
T2 sequence (P08172 whole entry): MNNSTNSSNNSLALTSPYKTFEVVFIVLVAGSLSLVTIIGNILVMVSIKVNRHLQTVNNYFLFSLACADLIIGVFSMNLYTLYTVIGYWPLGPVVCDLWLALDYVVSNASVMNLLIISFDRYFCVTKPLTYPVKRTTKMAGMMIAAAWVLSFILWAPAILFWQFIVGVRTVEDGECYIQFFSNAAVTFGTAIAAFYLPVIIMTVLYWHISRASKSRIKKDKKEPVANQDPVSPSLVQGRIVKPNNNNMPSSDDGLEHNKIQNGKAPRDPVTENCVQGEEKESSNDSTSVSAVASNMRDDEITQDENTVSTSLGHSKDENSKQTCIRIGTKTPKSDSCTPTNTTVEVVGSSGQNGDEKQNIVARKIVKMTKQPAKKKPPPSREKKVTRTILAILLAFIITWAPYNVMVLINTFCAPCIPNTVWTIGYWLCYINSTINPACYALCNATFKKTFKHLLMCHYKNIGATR

D(3) dopamine receptor = D(3) dopamine receptor (Homo sapiens, UniProt P35462)
Thromboxane A2 receptor = target: T3, Thromboxane A2 receptor (Homo sapiens, UniProt P21731); format: functional, cell-based
T3 sequence (P21731 whole entry): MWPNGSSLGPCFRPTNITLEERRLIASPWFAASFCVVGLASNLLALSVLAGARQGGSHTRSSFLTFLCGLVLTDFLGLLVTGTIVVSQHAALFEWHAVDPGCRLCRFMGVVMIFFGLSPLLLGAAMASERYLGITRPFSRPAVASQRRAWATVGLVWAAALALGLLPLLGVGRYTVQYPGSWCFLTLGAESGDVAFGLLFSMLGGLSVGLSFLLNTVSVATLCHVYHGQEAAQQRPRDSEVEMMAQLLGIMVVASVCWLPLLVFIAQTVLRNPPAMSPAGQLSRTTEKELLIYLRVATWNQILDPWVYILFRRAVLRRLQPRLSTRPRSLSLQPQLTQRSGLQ

[4] = target: cGMP-inhibited 3',5'-cyclic phosphodiesterase 3A (Homo sapiens, UniProt Q14432); format: functional
[5] = target: T4, Amine oxidase [flavin-containing] A (Homo sapiens, UniProt P21397); format: functional
T4 sequence (P21397 whole entry): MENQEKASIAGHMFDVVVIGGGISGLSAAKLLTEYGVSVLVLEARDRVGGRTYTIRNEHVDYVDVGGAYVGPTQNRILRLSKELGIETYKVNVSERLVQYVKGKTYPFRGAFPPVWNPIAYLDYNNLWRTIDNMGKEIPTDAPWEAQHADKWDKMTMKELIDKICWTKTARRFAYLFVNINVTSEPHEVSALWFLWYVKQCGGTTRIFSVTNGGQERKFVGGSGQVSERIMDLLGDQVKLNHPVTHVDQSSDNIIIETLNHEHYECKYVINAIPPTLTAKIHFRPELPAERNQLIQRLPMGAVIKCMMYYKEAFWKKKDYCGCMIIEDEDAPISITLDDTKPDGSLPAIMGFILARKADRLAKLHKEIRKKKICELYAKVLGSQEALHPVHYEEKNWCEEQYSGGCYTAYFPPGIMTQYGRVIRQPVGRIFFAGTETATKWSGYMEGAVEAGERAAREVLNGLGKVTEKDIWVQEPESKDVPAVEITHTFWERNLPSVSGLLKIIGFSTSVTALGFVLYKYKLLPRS

[6] = target: T5, Alpha-2A adrenergic receptor (Homo sapiens, UniProt P08913)
T5 sequence (P08913 whole entry): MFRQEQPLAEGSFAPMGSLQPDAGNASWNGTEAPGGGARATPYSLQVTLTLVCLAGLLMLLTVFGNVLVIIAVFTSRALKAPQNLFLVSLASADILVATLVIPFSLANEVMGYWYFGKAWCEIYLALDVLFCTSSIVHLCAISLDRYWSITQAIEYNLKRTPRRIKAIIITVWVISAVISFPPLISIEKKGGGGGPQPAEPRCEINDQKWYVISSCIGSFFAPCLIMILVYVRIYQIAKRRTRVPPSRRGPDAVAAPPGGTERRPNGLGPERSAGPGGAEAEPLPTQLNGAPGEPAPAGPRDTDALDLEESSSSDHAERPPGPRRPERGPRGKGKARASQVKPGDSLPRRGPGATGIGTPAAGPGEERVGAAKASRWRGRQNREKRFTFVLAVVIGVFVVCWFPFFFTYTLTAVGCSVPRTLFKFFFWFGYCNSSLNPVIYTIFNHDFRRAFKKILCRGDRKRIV

[7] = target: T1, Prostaglandin G/H synthase 1; format: functional; remark: listed apart in the source
Acetylcholinesterase = Acetylcholinesterase (Homo sapiens, UniProt P22303); format: functional
[8] = target: T6, 5-hydroxytryptamine receptor 1A (Homo sapiens, UniProt P08908)
T6 sequence (P08908 whole entry): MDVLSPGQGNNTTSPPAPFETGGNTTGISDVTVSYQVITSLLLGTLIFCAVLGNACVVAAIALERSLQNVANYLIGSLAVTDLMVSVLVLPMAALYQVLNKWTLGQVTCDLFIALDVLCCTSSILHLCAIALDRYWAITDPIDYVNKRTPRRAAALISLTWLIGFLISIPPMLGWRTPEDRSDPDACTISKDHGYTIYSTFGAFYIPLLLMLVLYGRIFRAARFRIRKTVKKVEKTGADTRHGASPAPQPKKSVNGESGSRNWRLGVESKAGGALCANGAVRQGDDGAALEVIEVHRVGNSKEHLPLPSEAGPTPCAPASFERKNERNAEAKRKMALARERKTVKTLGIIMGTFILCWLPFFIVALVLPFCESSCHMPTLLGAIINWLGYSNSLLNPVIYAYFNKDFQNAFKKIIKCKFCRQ

[9] = target: 3',5'-cyclic-AMP phosphodiesterase 4A (Homo sapiens, UniProt P27815); format: functional
[10] = target: Voltage-gated inwardly rectifying potassium channel KCNH2 (Homo sapiens, UniProt Q12809); format: functional; conditions: read-out: AC50
[11] = target: Vascular endothelial growth factor receptor 2 (Homo sapiens, UniProt P35968); format: functional
Also: assay procedure not described here.

Chain of D(3) dopamine receptor (P35462 whole entry): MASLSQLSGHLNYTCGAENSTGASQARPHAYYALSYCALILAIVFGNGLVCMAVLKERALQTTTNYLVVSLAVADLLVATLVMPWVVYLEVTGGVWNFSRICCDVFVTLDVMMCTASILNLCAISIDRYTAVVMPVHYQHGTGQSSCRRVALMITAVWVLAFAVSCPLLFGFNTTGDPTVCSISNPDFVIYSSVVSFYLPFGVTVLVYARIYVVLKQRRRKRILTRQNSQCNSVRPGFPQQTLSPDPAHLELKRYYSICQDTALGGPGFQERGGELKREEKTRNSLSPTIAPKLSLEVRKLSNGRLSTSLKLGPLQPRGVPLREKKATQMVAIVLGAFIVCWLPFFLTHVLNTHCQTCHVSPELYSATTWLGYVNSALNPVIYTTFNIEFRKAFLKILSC
T1 sequence (P23219 whole entry): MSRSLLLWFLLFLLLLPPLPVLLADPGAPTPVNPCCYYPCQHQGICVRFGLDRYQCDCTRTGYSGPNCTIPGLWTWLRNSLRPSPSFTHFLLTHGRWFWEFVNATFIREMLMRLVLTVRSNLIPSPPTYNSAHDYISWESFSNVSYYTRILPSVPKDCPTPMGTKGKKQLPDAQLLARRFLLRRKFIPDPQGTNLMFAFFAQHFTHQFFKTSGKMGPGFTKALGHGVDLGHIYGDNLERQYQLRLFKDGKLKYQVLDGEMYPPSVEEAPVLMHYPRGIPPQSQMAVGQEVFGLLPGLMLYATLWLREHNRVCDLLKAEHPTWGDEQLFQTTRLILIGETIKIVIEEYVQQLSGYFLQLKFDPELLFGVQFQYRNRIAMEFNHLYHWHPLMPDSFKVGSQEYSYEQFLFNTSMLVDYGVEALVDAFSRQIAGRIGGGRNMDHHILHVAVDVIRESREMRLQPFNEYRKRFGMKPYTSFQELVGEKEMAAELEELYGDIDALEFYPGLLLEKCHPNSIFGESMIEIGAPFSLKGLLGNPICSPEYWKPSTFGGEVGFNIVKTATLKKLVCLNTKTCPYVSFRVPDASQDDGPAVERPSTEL
Chain of Sodium-dependent noradrenaline transporter (P23975 whole entry): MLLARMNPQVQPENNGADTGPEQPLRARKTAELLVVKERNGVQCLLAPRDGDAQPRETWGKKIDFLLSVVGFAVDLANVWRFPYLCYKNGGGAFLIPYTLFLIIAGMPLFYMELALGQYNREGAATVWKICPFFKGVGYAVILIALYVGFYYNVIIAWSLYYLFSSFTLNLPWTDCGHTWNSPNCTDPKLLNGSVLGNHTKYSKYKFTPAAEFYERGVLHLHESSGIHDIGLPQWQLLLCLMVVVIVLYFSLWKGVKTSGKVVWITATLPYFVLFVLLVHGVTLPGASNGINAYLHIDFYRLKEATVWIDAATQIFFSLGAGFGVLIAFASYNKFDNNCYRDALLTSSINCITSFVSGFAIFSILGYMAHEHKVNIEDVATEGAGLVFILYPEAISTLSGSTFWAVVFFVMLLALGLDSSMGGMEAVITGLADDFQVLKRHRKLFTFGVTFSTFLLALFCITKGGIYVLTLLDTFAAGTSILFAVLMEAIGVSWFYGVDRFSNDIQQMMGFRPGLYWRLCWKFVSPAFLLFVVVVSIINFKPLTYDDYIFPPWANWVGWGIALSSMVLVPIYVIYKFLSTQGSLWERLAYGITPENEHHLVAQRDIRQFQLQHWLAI
Chain of cGMP-inhibited 3',5'-cyclic phosphodiesterase 3A (Q14432 whole entry): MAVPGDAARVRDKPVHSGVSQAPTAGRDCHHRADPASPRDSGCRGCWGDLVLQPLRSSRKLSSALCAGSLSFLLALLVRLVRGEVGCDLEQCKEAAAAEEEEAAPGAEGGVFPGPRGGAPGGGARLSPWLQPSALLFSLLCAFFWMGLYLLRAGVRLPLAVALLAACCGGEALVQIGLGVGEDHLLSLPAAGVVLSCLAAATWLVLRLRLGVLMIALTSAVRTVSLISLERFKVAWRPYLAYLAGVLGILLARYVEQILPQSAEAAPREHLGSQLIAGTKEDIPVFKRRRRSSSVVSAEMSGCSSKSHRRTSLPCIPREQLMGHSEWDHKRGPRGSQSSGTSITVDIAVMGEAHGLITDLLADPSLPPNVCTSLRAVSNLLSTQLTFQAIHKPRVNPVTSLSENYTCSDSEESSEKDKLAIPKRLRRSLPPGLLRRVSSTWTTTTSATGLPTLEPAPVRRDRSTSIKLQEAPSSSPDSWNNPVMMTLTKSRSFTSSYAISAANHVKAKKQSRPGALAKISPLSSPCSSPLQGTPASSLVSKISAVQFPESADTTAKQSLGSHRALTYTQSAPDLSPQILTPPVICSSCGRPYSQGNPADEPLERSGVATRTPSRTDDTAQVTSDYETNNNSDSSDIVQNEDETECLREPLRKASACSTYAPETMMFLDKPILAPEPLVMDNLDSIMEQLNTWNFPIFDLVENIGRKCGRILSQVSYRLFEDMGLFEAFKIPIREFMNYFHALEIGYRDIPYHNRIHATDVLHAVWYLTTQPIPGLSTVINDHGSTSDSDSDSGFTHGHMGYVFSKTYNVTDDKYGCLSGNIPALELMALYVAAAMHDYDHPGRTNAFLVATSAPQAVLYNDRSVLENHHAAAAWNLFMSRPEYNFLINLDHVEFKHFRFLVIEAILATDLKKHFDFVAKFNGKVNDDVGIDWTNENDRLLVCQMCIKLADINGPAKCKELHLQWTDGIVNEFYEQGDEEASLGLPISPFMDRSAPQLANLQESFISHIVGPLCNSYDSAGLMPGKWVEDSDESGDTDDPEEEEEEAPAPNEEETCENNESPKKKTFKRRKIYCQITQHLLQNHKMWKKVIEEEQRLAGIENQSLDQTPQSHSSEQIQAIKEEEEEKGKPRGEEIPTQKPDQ
Chain of Vascular endothelial growth factor receptor 2 (P35968 whole entry): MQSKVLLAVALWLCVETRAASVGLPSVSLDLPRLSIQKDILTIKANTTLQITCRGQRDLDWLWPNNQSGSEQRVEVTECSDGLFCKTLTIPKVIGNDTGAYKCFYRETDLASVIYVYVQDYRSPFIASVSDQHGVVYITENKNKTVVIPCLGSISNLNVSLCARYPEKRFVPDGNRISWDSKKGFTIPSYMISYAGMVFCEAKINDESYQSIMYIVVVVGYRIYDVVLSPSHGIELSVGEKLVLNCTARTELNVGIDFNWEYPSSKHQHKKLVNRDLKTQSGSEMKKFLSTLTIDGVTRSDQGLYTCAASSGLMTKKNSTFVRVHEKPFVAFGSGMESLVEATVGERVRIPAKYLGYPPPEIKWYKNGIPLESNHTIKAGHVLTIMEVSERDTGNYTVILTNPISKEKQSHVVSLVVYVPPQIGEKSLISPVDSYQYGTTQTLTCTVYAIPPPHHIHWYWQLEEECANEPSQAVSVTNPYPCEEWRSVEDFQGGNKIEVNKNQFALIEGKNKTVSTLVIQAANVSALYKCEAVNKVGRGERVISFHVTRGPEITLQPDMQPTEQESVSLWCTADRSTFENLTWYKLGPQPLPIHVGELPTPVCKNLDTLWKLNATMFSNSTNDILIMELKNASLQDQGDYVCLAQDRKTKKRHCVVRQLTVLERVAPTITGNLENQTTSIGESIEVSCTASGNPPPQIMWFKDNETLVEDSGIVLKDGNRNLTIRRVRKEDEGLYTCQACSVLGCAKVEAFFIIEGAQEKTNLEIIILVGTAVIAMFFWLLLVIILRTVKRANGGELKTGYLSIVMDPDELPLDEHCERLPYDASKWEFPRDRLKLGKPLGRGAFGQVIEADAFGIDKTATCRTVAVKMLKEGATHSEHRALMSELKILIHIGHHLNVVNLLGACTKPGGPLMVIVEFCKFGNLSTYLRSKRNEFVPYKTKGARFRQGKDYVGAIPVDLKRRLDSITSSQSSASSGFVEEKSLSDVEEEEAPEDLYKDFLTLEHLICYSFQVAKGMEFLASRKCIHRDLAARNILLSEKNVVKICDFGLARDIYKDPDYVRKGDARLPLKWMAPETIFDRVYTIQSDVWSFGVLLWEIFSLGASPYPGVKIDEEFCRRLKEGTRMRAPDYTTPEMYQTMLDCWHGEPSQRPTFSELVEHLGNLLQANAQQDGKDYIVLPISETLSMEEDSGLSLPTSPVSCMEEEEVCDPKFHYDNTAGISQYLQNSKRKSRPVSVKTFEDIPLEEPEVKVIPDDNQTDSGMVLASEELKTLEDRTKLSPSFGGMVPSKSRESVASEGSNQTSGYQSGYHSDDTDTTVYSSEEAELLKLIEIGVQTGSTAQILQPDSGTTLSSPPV
Chain of Acetylcholinesterase (P22303 whole entry): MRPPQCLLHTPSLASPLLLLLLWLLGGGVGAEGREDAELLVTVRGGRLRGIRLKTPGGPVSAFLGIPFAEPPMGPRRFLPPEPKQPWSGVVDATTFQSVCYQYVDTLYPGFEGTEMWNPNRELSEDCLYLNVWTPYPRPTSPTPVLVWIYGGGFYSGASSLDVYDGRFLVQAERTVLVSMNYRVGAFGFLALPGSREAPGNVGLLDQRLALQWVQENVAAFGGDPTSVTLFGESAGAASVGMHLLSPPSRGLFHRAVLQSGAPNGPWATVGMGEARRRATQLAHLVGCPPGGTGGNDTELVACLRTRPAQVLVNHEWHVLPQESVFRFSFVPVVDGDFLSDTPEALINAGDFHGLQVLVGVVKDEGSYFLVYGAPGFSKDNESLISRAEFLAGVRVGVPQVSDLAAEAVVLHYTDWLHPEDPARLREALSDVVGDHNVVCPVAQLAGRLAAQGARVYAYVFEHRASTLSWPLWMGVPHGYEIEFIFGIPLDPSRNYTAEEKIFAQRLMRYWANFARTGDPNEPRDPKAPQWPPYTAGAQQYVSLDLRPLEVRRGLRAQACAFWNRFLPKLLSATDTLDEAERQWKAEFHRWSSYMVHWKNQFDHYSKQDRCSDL

Structure (SMILES) | AC50 [1] [µM] | AC50 [2] [µM] | AC50 (Prothrombin) [µM] | AC50 [3] [µM] | AC50 (D(3) dopamine receptor) [µM] | AC50 (Thromboxane A2 receptor) [µM] | AC50 [4] [µM] | AC50 [5] [µM] | AC50 [6] [µM] | AC50 [7] [µM] | AC50 (Acetylcholinesterase) [µM] | AC50 [8] [µM] | AC50 [9] [µM] | AC50 [10] [µM] | AC50 [11] [µM]
N=C(N)NC(=O)c1nc(Cl)c(N)nc1N [AMILORIDE] | > 30 | > 30 | > 30 | > 30 | > 30 | > 30 | > 30 | 5.24 | > 30 | > 30 | > 30 | 11.1 | > 30 |  | 
Oc1cc(Cl)ccc1Oc1ccc(Cl)cc1Cl [TRICLOSAN] |  |  |  |  |  |  |  |  |  |  |  |  |  | > 30 | 
CC1=C(/C=C/C(C)=C\C=C\C(C)=C\C(=O)O)C(C)(C)CCC1 [ALITRETINOIN] |  | > 30 | > 30 | > 30 | > 30 | > 30 | > 30 | > 30 | > 30 |  | > 30 | > 30 | > 30 |  | > 30
C[C@]12C=CC(=O)C=C1C(Cl)=C[C@@H]1[C@@H]2[C@@H](O)C[C@@]2(C)[C@H]1CC[C@]2(O)C(=O)CO [CLOPREDNOL] |  |  |  |  |  |  |  |  |  |  |  |  |  | > 30 | 
CC(CN(C)C)CN1c2ccccc2CCc2ccccc21 (configuration not stated) [TRIMIPRAMINE] | > 30 | 18.5 | > 30 |  | 0.0178 | 9.64 | > 30 | > 30 | 1.27 | > 30 | > 30 | 20.1 | > 30 | 8.9 | > 30
CN(C)[C@@H]1C(O)=C(C(=O)NCN2CCCC2)C(=O)[C@@]2(O)C(O)=C3C(=O)c4c(O)cccc4[C@@](C)(O)[C@H]3C[C@@H]12 [ROLITETRACYCLINE] |  |  |  |  |  |  |  |  |  |  |  |  |  | > 30 | 
C[C@]12CCC(=O)C=C1C=C[C@@H]1[C@@H]2CC[C@@]2(C)[C@H]1CC[C@@]21CCC(=O)O1 [CANRENONE] |  |  |  |  |  |  |  |  |  |  |  |  |  | > 30 | 
CC(C)(Oc1ccc(Cl)cc1)C(=O)OCCOC(=O)c1cccnc1 [ETOFIBRATE] |  |  |  |  |  |  |  |  |  |  |  |  |  | > 30 | 
CC1=C(/C=C/C(C)=C/C=C/C(C)=C\C(=O)O)C(C)(C)CCC1 [ISOTRETINOIN] |  | > 30 | > 30 | > 30 | > 30 | > 30 | > 30 | > 30 | > 30 |  | > 30 | > 30 | > 30 |  | > 30
COc1ccc(-c2cc(=S)ss2)cc1 [ANETHOLTRITHION] |  |  |  |  |  |  |  |  |  |  |  |  |  | 23.3 | 
